Columns and labels:
[1] = target: T1, IDH (endogenous IDH1 R132C) in HT1080 cell (Homo sapiens, UniProt O75874, R132C); assay: Cell-based assay for IDH inhibition (decrease of D-2-HG) in HT1080 cells; settings: human fibrosarcoma cell line HT1080, 16 hours treatment, D-2-HG by LC-MS, in triplet
T1 construct: which harbor endogenous heterozygous IDH1 R132C and R132H mutation respectively and accumulate D-2-HG
Method in brief: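 HT1080 cells with endogenous IDH1 R132C, grown in DMEM/10% FBS, treated with compound at several concentrations for 16 h. Metabolites extracted in cold 40% methanol/40% acetonitrile and D-2-HG measured by HILIC LC-MS/MS, normalized to glutamate. IC50 from D-2-HG relative to DMSO controls; run in triplicate.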

IDH1 R132H = target: T2, IDH1 R132H (Homo sapiens, UniProt O75874, R132H); assay: Biochemical assay for IDH inhibition (NADPH fluorescence), mutant IDH1 R132H; settings: 50 nM IDH1-R132H, 1 hour pre-incubation, in triplet
T2 construct: 6xHis
T2 sequence (O75874 whole entry R132H): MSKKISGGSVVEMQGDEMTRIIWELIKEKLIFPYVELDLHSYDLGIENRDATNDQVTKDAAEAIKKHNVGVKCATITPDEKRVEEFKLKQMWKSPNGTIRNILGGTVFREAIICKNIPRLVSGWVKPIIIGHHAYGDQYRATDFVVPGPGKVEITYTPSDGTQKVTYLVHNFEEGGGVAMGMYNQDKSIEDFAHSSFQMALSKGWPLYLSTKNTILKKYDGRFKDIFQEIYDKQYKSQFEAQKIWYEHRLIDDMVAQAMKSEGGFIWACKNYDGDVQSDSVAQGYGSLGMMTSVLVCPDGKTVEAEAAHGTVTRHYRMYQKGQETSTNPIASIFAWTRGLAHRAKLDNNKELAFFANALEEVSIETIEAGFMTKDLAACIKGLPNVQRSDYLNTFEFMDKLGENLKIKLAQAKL
Method in brief: (§1)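 Mutant enzyme (25 nM R132C or 50 nM R132H) was preincubated 1 h at room temperature with compound in pH 7.5 Tris buffer containing 1.33 mM α-KG, and the reaction was then started with NADPH (80 μM solution). NADPH consumption was followed by fluorescence (Ex 340/Em 460 nm) for 15 min. IC50 was derived from background-corrected linear rates relative to vehicle, run in triplicate.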

IDH1 R132C = target: T3, IDH1 R132C (Homo sapiens, UniProt O75874, R132C); assay: Biochemical assay for IDH inhibition (NADPH fluorescence), mutant IDH1 R132C; settings: 25 nM IDH1-R132C, 1 hour pre-incubation, in triplet
T3 construct: 6xHis
T3 sequence (O75874 whole entry R132C): as the sequence (O75874 whole entry R132H) above, with H132C counted along it
Method in brief: as §1

T1 sequence (O75874 2-414 R132C): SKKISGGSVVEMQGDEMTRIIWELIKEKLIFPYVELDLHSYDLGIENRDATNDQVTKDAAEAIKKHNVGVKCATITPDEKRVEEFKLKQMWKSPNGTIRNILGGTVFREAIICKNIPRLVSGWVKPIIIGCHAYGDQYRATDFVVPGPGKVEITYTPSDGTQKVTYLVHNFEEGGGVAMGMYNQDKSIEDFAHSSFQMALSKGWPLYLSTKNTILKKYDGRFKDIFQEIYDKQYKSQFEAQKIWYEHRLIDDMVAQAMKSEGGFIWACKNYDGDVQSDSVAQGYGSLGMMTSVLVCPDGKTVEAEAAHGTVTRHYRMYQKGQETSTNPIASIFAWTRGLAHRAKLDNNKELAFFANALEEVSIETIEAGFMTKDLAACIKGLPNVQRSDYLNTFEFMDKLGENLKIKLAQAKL

| SMILES | IC50 [1] [µM] | IC50 (IDH1 R132H) [µM] | IC50 (IDH1 R132C) [µM] |
| --- | --- | --- | --- |
| CCN1Cc2c(N[C@@H](C)c3ccc(-c4ccnc(C(C)(C)C)c4)c(F)c3)ncnc2C1=O [Compound 66, (S)-4-((1-(4-(2-(tert-butyl)pyridin-4-yl)-3-fluorophenyl)ethyl)amino)-6-ethyl-5H-pyrrolo[3,4-d]pyrimidin-7(6H)-one] | 0.5 to 1 | 0.1 to 0.5 | > 1 |
| C[C@H](Nc1nccc2c1CN(CCO)C2=O)c1cc(F)c(-c2ccnc(C(C)(C)C)c2)cc1F [Compound 159, (S)-4-((1-(4-(2-(tert-butyl)pyridin-4-yl)-2,5-difluorophenyl)ethyl)amino)-2-(2-hydroxyethyl)-2,3-dihydro-1H-pyrrolo[3,4-c]pyridin-1-one] | 0.1 to 0.5 | 0.1 to 0.5 | 0.1 to 0.5 |
| CCN1Cc2c(N[C@@H](C)c3ccc(Oc4ccc(C)cc4)c(F)c3)ncc(F)c2C1=O [Compound 18, (S)-2-ethyl-7-fluoro-4-((1-(3-fluoro-4-(p-tolyloxy)phenyl)ethyl)amino)-2,3-dihydro-1H-pyrrolo[3,4-c]pyridin-1-one] | > 1 | 0.1 to 0.5 | > 1 |
| CCN1Cc2c(ccnc2N[C@@H](C)c2cc(F)c(-c3cc(C(C)(C)F)c(OC)nn3)cc2F)C1=O [Compound 153, (S)-4-((1-(2,5-difluoro-4-(5-(2-fluoropropan-2-yl)-6-methoxypyridazin-3-yl)phenyl)ethyl)amino)-2-ethyl-2,3-dihydro-1H-pyrrolo[3,4-c]pyridin-1-one] | < 0.1 | < 0.1 | < 0.1 |
| CCN1Cc2c(ccnc2N[C@@H](C)c2ccc(-c3cc(C)nc(C)c3)c(F)c2)C1=O [Compound 76, (S)-4-((1-(4-(2,6-dimethylpyridin-4-yl)-3-fluorophenyl)ethyl)amino)-2-ethyl-2,3-dihydro-1H-pyrrolo[3,4-c]pyridin-1-one] | > 1 | > 1 | > 1 |
| C[C@H](Nc1nccc2c1CN(C(CF)CF)C2=O)c1ccc(-c2ccnc(C(C)(C)C)c2)c(F)c1 [Compound 38, (S)-4-((1-(4-(2-(tert-butyl)pyridin-4-yl)-3-fluorophenyl)ethyl)amino)-2-(1,3-difluoropropan-2-yl)-2,3-dihydro-1H-pyrrolo[3,4-c]pyridin-1-one] | 0.5 to 1 | < 0.1 | 0.1 to 0.5 |
| CCN1Cc2c(ccnc2N[C@@H](C)c2cc(F)c(-c3cc(C(C)(C)F)c(OC)cn3)cc2F)C1=O [Compound 135, (S)-4-((1-(2,5-difluoro-4-(4-(2-fluoropropan-2-yl)-5-methoxypyridin-2-yl)phenyl)ethyl)amino)-2-ethyl-2,3-dihydro-1H-pyrrolo[3,4-c]pyridin-1-one] | < 0.1 | < 0.1 | < 0.1 |
| CCN1Cc2c(ccnc2N[C@@H](C)c2ccc(Oc3cnn(C)c3)c(F)c2)C1=O [Compound 4, (S)-2-ethyl-4-((1-(3-fluoro-4-((1-methyl-1H-pyrazol-4-yl)oxy)phenyl)ethyl)amino)-2,3-dihydro-1H-pyrrolo[3,4-c]pyridin-1-one] | > 1 | > 1 | > 1 |
| CCN1Cc2c(ccnc2N[C@@H](C)c2ccc(-c3ccn(C)n3)c(F)c2)C1=O [Compound 83, (S)-2-ethyl-4-((1-(3-fluoro-4-(1-methyl-1H-pyrazol-3-yl)phenyl)ethyl)amino)-2,3-dihydro-1H-pyrrolo[3,4-c]pyridin-1-one] | > 1 | > 1 | > 1 |
| CCN1Cc2c(ccnc2N[C@@H](C)c2cc(F)c(-c3cc(C4(F)CC4)cc(C)n3)cc2F)C1=O [Compound 131, (S)-4-((1-(2,5-difluoro-4-(4-(1-fluorocyclopropyl)-6-methylpyridin-2-yl)phenyl)ethyl)amino)-2-ethyl-2,3-dihydro-1H-pyrrolo[3,4-c]pyridin-1-one] | < 0.1 | < 0.1 | < 0.1 |
| CCN1Cc2c(ccnc2N[C@@H](C)c2cc(F)c(-c3nc(C)cc(C(C)(C)F)c3F)cc2F)C1=O [Compound 134, (S)-4-((1-(2,5-difluoro-4-(3-fluoro-4-(2-fluoropropan-2-yl)-6-methylpyridin-2-yl)phenyl)ethyl)amino)-2-ethyl-2,3-dihydro-1H-pyrrolo[3,4-c]pyridin-1-one] | < 0.1 | < 0.1 | < 0.1 |
